{"source": "patent US20120028985A1", "about": "“COMBINATIONAL THERAPY FOR TREATING AUTOIMMUNE DISEASE” (4SC AG, priority 2008, published 2012)", "key": {"[1]": {"assay": "Toxicokinetics of formula (II) and methotrexate after individual and concomitant administration to Beagle dogs", "format": "in vivo", "conditions": "Beagle, dog, plasma, po, mean"}, "[2]": {"tested_on": "Beagle dogs", "text": "The animals were randomly allocated to five test groups employing a pseudo-random body weight stratification procedure that yielded groups with approximately equal mean body weights. […] A special focus of the study was to study the influence of the combination treatment on liver toxicity."}, "[3]": {"tested_on": "Beagle dogs", "assay": "13-week repeat dose toxicity in Beagle dogs, combination with methotrexate: clinical biochemistry (ALAT, ASAT)", "format": "in vivo", "conditions": "for ALAT, change as compared to the control group 1 / ASAT, change as compared to the control group 1: 25 mg Formula (II)/kg/day and/or 10/2.5 mg MTX/kg/week, p.o.", "description": "For laboratory examinations blood samples were taken from the vena cephalica or vena saphena magna from animals fasted overnight. Serum samples were collected into tubes for biochemical tests. Clinical biochemistry parameters from venous blood were determined at the times listed below:\nPrior to study start: all animals of a pool of 52 dogs […]\nAt the end of the recovery period: all 8 recovery animals included in this study\nClinical biochemistry parameters (e.g. bile acids, alanine aminotransferase=ALAT, alkaline phosphatise=aP, aspartate aminotransferase=ASAT, gamma-glutamyl-transferase=Gamma-GT, glutamate dehydrogenase=GLDH, creatine kinase=CK) were measured using KONELAB 30i instrument (Thermo Fisher Scientific, 63303 Dreieich, Germany) as U/L (unit/liter) serum."}, "[4]": {"tested_on": "DBA1/J mice", "assay": "Liver histology in collagen induced arthritis mice", "format": "in vivo", "conditions": "individual mouse; diseased mice; po, MTX 2.5 mg/kg, Formula (II) 50 mg/kg", "text": "Dosing is started, PO (per oral) once daily for 14 days."}, "[5]": {"conditions": "female, 2.5 mg/kg, Group 3, methotrexate alone 2.5 mg/kg (reduced from 10), week 13, female Beagle dogs"}, "[6]": {"conditions": "female, 2.5 mg/kg, Group 4 (+10SC, in combination with 10 mg/kg formula (II)), methotrexate 2.5 mg/kg (reduced from 10), week 13, female Beagle dogs"}, "[7]": {"conditions": "female, 2.5 mg/kg, Group 5 (+25SC, in combination with 25 mg/kg formula (II)), methotrexate 2.5 mg/kg (reduced from 10), week 13, female Beagle dogs"}, "[8]": {"conditions": "female, 10 mg/kg, Group 3, methotrexate 10 mg/kg alone, day 1, female Beagle dogs"}, "[9]": {"conditions": "female, 10 mg/kg, Group 4 (+10SC, in combination with 10 mg/kg formula (II)), methotrexate 10 mg/kg, day 1, female Beagle dogs"}, "[10]": {"conditions": "female, 10 mg/kg, Group 5 (+25SC, in combination with 25 mg/kg formula (II)), methotrexate 10 mg/kg, day 1, female Beagle dogs"}, "[11]": {"conditions": "male, 2.5 mg/kg, Group 3, methotrexate alone 2.5 mg/kg (reduced from 10), week 13, male Beagle dogs"}, "[12]": {"conditions": "male, 2.5 mg/kg, Group 4 (+10SC, in combination with 10 mg/kg formula (II)), methotrexate 2.5 mg/kg (reduced from 10), week 13, male Beagle dogs"}, "[13]": {"conditions": "male, 2.5 mg/kg, Group 5 (+25SC, in combination with 25 mg/kg formula (II)), methotrexate 2.5 mg/kg (reduced from 10), week 13, male Beagle dogs"}, "[14]": {"conditions": "male, 10 mg/kg, Group 3, methotrexate 10 mg/kg alone, day 1, male Beagle dogs"}, "[15]": {"conditions": "male, 10 mg/kg, Group 4 (+10SC, in combination with 10 mg/kg formula (II)), methotrexate 10 mg/kg, day 1, male Beagle dogs"}, "[16]": {"conditions": "male, 10 mg/kg, Group 5 (+25SC, in combination with 25 mg/kg formula (II)), methotrexate 10 mg/kg, day 1, male Beagle dogs"}}, "note": "“Also recorded” adds a separate entry of the source. Marks after values point to notes of the source that are not given here."}
{"smiles": "CN(Cc1cnc2nc(N)nc(N)c2n1)c1ccc(C(=O)N[C@@H](CCC(=O)O)C(=O)O)cc1", "note": "[MTX, methotrexate, reference compound]", "values": [{"measurement": "AUC(0-inf)", "setting": "[1]; [5]", "result": 2200, "unit": "ng·h/mL"}, {"measurement": "Cmax", "setting": "[1]; [5]", "result": 500, "unit": "ng/mL"}, {"measurement": "half-life", "setting": "[1]; [5]", "result": 2.3, "unit": "h"}, {"measurement": "AUC(0-inf)", "setting": "[1]; [6]", "result": 1900, "unit": "ng·h/mL"}, {"measurement": "Cmax", "setting": "[1]; [6]", "result": 400, "unit": "ng/mL"}, {"measurement": "half-life", "setting": "[1]; [6]", "result": 2.6, "unit": "h"}, {"measurement": "AUC(0-inf)", "setting": "[1]; [7]", "result": 1400, "unit": "ng·h/mL"}, {"measurement": "Cmax", "setting": "[1]; [7]", "result": 200, "unit": "ng/mL"}, {"measurement": "half-life", "setting": "[1]; [7]", "result": 2.7, "unit": "h"}, {"measurement": "AUC(0-inf)", "setting": "[1]; [8]", "result": 5300, "unit": "ng·h/mL"}, {"measurement": "Cmax", "setting": "[1]; [8]", "result": 1100, "unit": "ng/mL"}, {"measurement": "half-life", "setting": "[1]; [8]", "result": 2.4, "unit": "h"}, {"measurement": "AUC(0-inf)", "setting": "[1]; [9]", "result": 7500, "unit": "ng·h/mL"}, {"measurement": "Cmax", "setting": "[1]; [9]", "result": 1700, "unit": "ng/mL"}, {"measurement": "AUC(0-inf)", "setting": "[1]; [10]", "result": 5000, "unit": "ng·h/mL"}, {"measurement": "Cmax", "setting": "[1]; [10]", "result": 1200, "unit": "ng/mL"}, {"measurement": "half-life", "setting": "[1]; [10]", "result": 2, "unit": "h"}, {"measurement": "AUC(0-inf)", "setting": "[1]; [11]", "result": 3000, "unit": "ng·h/mL"}, {"measurement": "Cmax", "setting": "[1]; [11]", "result": 700, "unit": "ng/mL"}, {"measurement": "half-life", "setting": "[1]; [11]", "result": 2.6, "unit": "h"}, {"measurement": "AUC(0-inf)", "setting": "[1]; [12]", "result": 2000, "unit": "ng·h/mL"}, {"measurement": "Cmax", "setting": "[1]; [12]", "result": 400, "unit": "ng/mL"}, {"measurement": "half-life", "setting": "[1]; [12]", "result": 2, "unit": "h"}, {"measurement": "AUC(0-inf)", "setting": "[1]; [13]", "result": 2500, "unit": "ng·h/mL"}, {"measurement": "Cmax", "setting": "[1]; [13]", "result": 600, "unit": "ng/mL"}, {"measurement": "half-life", "setting": "[1]; [13]", "result": 2.1, "unit": "h"}, {"measurement": "AUC(0-inf)", "setting": "[1]; [14]", "result": 6400, "unit": "ng·h/mL"}, {"measurement": "Cmax", "setting": "[1]; [14]", "result": 1800, "unit": "ng/mL"}, {"measurement": "half-life", "setting": "[1]; [14]", "result": 1.6, "unit": "h"}, {"measurement": "AUC(0-inf)", "setting": "[1]; [15]", "result": 6600, "unit": "ng·h/mL"}, {"measurement": "Cmax", "setting": "[1]; [15]", "result": 1700, "unit": "ng/mL"}, {"measurement": "half-life", "setting": "[1]; [15]", "result": 1.6, "unit": "h"}, {"measurement": "AUC(0-inf)", "setting": "[1]; [16]", "result": 5900, "unit": "ng·h/mL"}, {"measurement": "Cmax", "setting": "[1]; [16]", "result": 1200, "unit": "ng/mL"}, {"measurement": "half-life", "setting": "[1]; [16]", "result": 2.2, "unit": "h"}, {"measurement": "Premature death", "setting": "[2]; Beagle dogs, 10 mg MTX/kg body weight/week, oral", "result": "found dead in the morning of test day 20"}, {"measurement": "Enteritis in the gastro-intestinal mucosa", "setting": "[2]; dog, in vivo, po", "result": "most pronounced"}, {"measurement": "Changes in the biochemical parameters", "setting": "[3]; Beagle dogs, 13 weeks oral, serum", "result": "pronounced and statistically significant (at p≦0.01) changes in the biochemical parameters of ALAT, ASAT, CK, GLDH as well as bile acids"}, {"measurement": "ALAT, change as compared to the control group 1", "setting": "[3]; Test day 37, females", "result": "+190%"}, {"measurement": "ASAT, change as compared to the control group 1", "setting": "[3]; Test day 37, females", "result": "+47** %"}, {"measurement": "ALAT, change as compared to the control group 1", "setting": "[3]; Test day 37, males", "result": "none"}, {"measurement": "ASAT, change as compared to the control group 1", "setting": "[3]; Test day 37, males", "result": "none"}, {"measurement": "ALAT, change as compared to the control group 1", "setting": "[3]; Test day 93, females", "result": "+567%"}, {"measurement": "ASAT, change as compared to the control group 1", "setting": "[3]; Test day 93, females", "result": "+34** %"}, {"measurement": "ALAT, change as compared to the control group 1", "setting": "[3]; Test day 93, males", "result": "+386%"}, {"measurement": "ASAT, change as compared to the control group 1", "setting": "[3]; Test day 93, males", "result": "+55** %"}, {"measurement": "Liver Histology, Observations", "setting": "[4]", "result": "Minimal glycogen depletion, hepatocyte; also recorded: Mild glycogen depletion, hepatocyte; also recorded: Normal; also recorded: Minimal multifocal subacute inflammation"}]}
